Reference: ChEMBL document CHEMBL1154232, “Cerebrosides of the halotolerant fungus Alternaria raphani isolated from a sea salt field” (J Nat Prod, 2009)
≈ marks a conversion by molar mass, not a printed value.

Tests used:
HL-60 = test: Cytotoxicity against human HL60 cells after 24 hrs by SRB assay; format: functional, cell-based; details: HL-60, 24 h
Candida albicans = test: Antifungal activity against Candida albicans after 24 hrs by agar dilution method; format: functional
[1] = tested on: Radical scavenging activity; test: Antioxidant activity assessed as DPPH free radical scavenging activity after 30 mins; format: functional
A549 = test: Cytotoxicity against human A549 cells after 72 hrs by MTT assay; format: functional, cell-based; details: A549, 72 h
P388 = test: Cytotoxicity against mouse P388 cells after 24 hrs by SRB assay; format: functional, cell-based; details: P388, 24 h
Escherichia coli = test: Antibacterial activity against Escherichia coli after 24 hrs by agar dilution method; format: functional
Bacillus subtilis = test: Antibacterial activity against Bacillus subtilis after 24 hrs by agar dilution method; format: functional
Bel-7402 = test: Cytotoxicity against human Bel7402 cells after 72 hrs by MTT assay; format: functional, cell-based; details: Bel-7402, 72 h

SMILES	IC50 (HL-60) [µM]	MIC (Candida albicans) [µM]	IC50 [1] [µM]	IC50 (A549) [µM]	IC50 (P388) [µM]	MIC (Escherichia coli) [µM]	MIC (Bacillus subtilis) [µM]	IC50 (Bel-7402) [µM]
C=C(CCCCCCCCC)C(=O)CC/C=C/[C@@H](O)[C@H](CO[C@@H]1O[C@H](CO)[C@@H](O)[C@H](O)[C@H]1O)NC(=O)[C@H](O)/C=C/CCCCCCCCCCCCCC [ALTERNAROSIDE A]	> 100	260 (≈ 200 µg/mL)	> 500	> 100	> 100	130 (≈ 99.9 µg/mL)	130 (≈ 99.9 µg/mL)	> 100
COc1cc([C@@H]2c3cc4c(cc3[C@@H](O[C@@H]3O[C@@H]5CO[C@@H](C)O[C@H]5[C@H](O)[C@H]3O)[C@H]3COC(=O)[C@H]23)OCO4)cc(OC)c1O [ETOPOSIDE]	0.042			0.63	0.05			1.03
O=C(O)c1cn(C2CC2)c2cc(N3CCNCC3)c(F)cc2c1=O [CIPROFLOXACIN LACTATE]							7.42	
O=C1O[C@H]([C@@H](O)CO)C(O)=C1O [ASCORBIC ACID]			22					
CCCCCCCCCCCCCC/C=C/[C@@H](O)C(=O)N[C@@H](CO[C@@H]1O[C@H](CO)[C@@H](O)[C@H](O)[C@H]1O)[C@H](O)/C=C/CC/C=C(\C)CCCCCCCC [ALTERNAROSIDE B]	> 100	270 (≈ 200 µg/mL)	> 500	> 100	> 100	135 (≈ 99.9 µg/mL)	68 (≈ 50.3 µg/mL)	> 100
CCCCCCCCC/C=C\CC/C=C/[C@@H](O)[C@H](CO[C@@H]1O[C@H](CO)[C@@H](O)[C@H](O)[C@H]1O)NC(=O)[C@H](O)/C=C/CCCCCCCCCCCCCC [ALTERNAROSIDE C]	> 100	270 (≈ 200 µg/mL)	> 500	> 100	> 100	135 (≈ 99.9 µg/mL)	135 (≈ 99.9 µg/mL)	> 100
OC(Cn1cncn1)(Cn1cncn1)c1ccc(F)cc1F [FLUCONAZOLE]		5.1 (≈ 1.56 µg/mL)						
